Read-outs that look alike come from different tables or passages of the source.
Experiments:
MOLM-13 cells = assay: Proliferation assay, MOLM-13 (CellTiter-Glo, 7 days); type: cell-based, human
Procedure, shortened: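 Cells were seeded at line-specific low densities for linear growth, exposed to 3.16-fold serial compound dilutions at 0.1% DMSO, and incubated 7 days at 37 °C, 5% CO2. Viability was read by CellTiter-Glo 2.0 luminescence; IC50 came from one-site fits of % inhibition, normalized between DMSO-treated cells (100%) and a day-0 plate (0%).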

[1] = Human hepatocyte intrinsic clearance assay; type: in vitro ADME; conditions: human hepatocytes
Protocol: Human hepatocytes (LiverPool™ 10-Donor Human hepatocytes (Mixed Gender, PEG-free, Product No. S01205, 5 million cells per vial) were obtained from BioreclamationIVT. DMSO was sourced from Solarbio S&T Co Ltd. Leibovitz's L-15 Medium, Williams' Medium E, GlutaMAX™-1 (100×), HEPES, DPBS (10×) and Human Recombinant Insulin Solution were purchased from Gibco. Isotonic Percoll Solution was purchased from GE Healthcare. Fetal Bovine Serum (FBS) was purchased from Corning.
10 mM dexamethasone stock solution was prepared by dissolving 3.9 mg dexamethasone in 1 mL of DMSO. An Isotonic Percoll Solution was prepared by dilution of Percoll with DPBS (10×). 15 mL of Isotonic Percoll Solution (90% Percoll/10% DPBS) was added to 31.25 mL William's E medium containing 500 mL of GlutaMAX™-1 (100×), 750 mL of 1M HEPES, 2.5 mL of 5% FBS, 50 mL of 4 mg/mL Human Recombinant Insulin Solution and 5 mL of the 10 mM dexamethasone stock.
2 mL of 10 mM DMSO stock solutions of test compound were added to 198 mL acetonitrile to produce 100 mmol/L concentration.
The human hepatocyte vial was thawed at 37° C. in a waterbath. Once thawed, contents were poured into a 50 mL conical tube and centrifuged at 100 g for 10 minutes. The thawing medium was poured out and 4 mL L-15 medium was added. The tube was gently shaken to resuspend the hepatocytes and cells were counted with an appropriate cell counter. 247.5 mL of the hepatocyte suspension was transferred into each well of the plate and pre-warmed at 600 rpm and 50° C. to enable the temperature to rise to 37° C.
2.5 mL of the […] test compound solution was added to initiate the reaction (final concentration […]) and incubated at 37° C. with shaking at 900 rpm. At 0.5, 5, 15, 30, 45, 60, 80, 100 and 120 minutes, 20 mL was taken into a quenching solution of acetonitrile containing internal standards. The mix was vortexed at 800 rpm for 2 minutes followed by centrifugation for 20 minutes at 4000 rpm at 4° C. 40 mL of supernatant was transferred into a 96 well analysis plate containing 160 mL of water in each well. The analysis plate was shaken at 100 rpm for 2 minutes prior to analysis by LC-MS/MS.
Peak areas were determined from extracted ion chromatograms. Percent parent remaining was calculated from peak area of test compound. The slope value, k, was determined by linear regression of the natural logarithm of percent parent remaining versus incubation time.
The in vitro intrinsic clearance (in vitro CLint in mL/min/10^6 cells) was determined from the slope value using the following equation: […]
where V is the incubation volume (0.25 mL) and N is the number of hepatocytes per well (0.25×10^6 cells).

SMILES	IC50 (MOLM-13 cells; Homo sapiens, MOLM-13, 168 h) [nM]	HH CLint [1] [μl/min/1E6]	IC50 (MOLM-13 cells) [nM]
COCCN(C)CCC[C@H](C(C)C)N1CCC(C(=O)c2cn(-c3ccc(F)cc3C(=O)N(C(C)C)C(C)C)c3cnccc23)CC1 (racemic) [Example 23, rac-(R)-5-Fluoro-N,N-diisopropyl-2-(3-(1-(6-((2-methoxyethyl)(methyl)amino)-2-methylhexan-3-yl)piperidine-4-carbonyl)-1H-pyrrolo[2,3-c]pyridin-1-yl)benzamide]	37	3.8	
CC(C)N(C(=O)c1cc(F)ccc1-n1cc(C(=O)C2CCN(C(=O)[C@H]3NC[C@@H]4CC[C@@H]43)CC2)c2ccncc21)C(C)C (relative stereo) [Example 25, rel-2-(3-(1-((1R,2R,5S)-3-Azabicyclo[3.2.0]heptane-2-carbonyl)piperidine-4-carbonyl)-1H-pyrrolo[2,3-c]pyridin-1-yl)-5-fluoro-N,N-diisopropylbenzamide]	50	3.6	
Cc1c(C(=O)C2CCN(C(=O)[C@@H]3CCC(C)(C)N3)CC2)c2ccncc2n1-c1ccc(F)cc1C(=O)N(C(C)C)C(C)C (single isomer, unassigned) [Compound 56-2]		3.4	40
CCN(C(=O)c1cc(F)ccc1-n1c(C)c(C(=O)C2CCN(C(=O)[C@H]3NC[C@@H]4C[C@@H]43)CC2)c2ccncc21)C(C)C (single isomer, unassigned) [Example 48-1]		<1.0	1250
CCN(C(=O)c1cc(F)ccc1-n1c(C)c(C(=O)C2CCN(C(=O)[C@H]3NC[C@@H]4C[C@@H]43)CC2)c2ccncc21)C(C)C (single isomer, unassigned) [Example 48-2]		<1.0	27
CCN(C(=O)c1cc(F)ccc1-n1c(C)c(C(=O)C2CCN(C(=O)[C@@H]3CCC4(CC4)N3)CC2)c2ccncc21)C(C)C (single isomer, unassigned) [Example 49-2]		6.0	80
CCN(C(=O)c1cc(F)ccc1-n1c(C)c(C(=O)C2CCN(C(=O)[C@@H]3CCC(C)(C)N3)CC2)c2ccncc21)C(C)C (single isomer, unassigned) [Example 50-2]		<1.0	44
Cc1c(C(=O)C2CCN(C(=O)[C@H]3NC[C@@H]4C[C@@H]43)CC2)c2ccncc2n1-c1ccc(F)cc1C(=O)N(CC(F)(F)F)C(C)C (single isomer, unassigned) [Example 51-1]			1610
Cc1c(C(=O)C2CCN(C(=O)[C@H]3NC[C@@H]4C[C@@H]43)CC2)c2ccncc2n1-c1ccc(F)cc1C(=O)N(CC(F)(F)F)C(C)C (single isomer, unassigned) [Example 51-2]		1.9	31
CCN(C(=O)c1cc(F)ccc1-n1c(C)c(C(=O)[C@@H]2CCN(C(=O)[C@@H]3CCC4(CC4)N3)[C@@H](C)C2)c2ccncc21)C(C)C (single isomer, unassigned) [Example 52-1, N-Ethyl-5-fluoro-N-isopropyl-2-(2-methyl-3-((2R*,4S*)-2-methyl-1-((S)-4-azaspiro[2.4]heptane-5-carbonyl)piperidine-4-carbonyl)-1H-pyrrolo[2,3-c]pyridin-1-yl)benzamide]		4.1	
Cc1c(C(=O)[C@@H]2CCN(C(=O)[C@@H]3CC[C@H](C)N3)[C@@H](C)C2)c2ccncc2n1-c1ccc(F)cc1C(=O)N(C(C)C)C(C)C (stereo in doubt) [Example 62, 5-Fluoro-N,N-diisopropyl-2-(2-methyl-3-((2S,4RS)-2-methyl-1-((2S,5S)-5-methylpyrrolidine-2-carbonyl)piperidine-4-carbonyl)-1H-pyrrolo[2,3-c]pyridin-1-yl)benzamide]	52		
CCN(C(=O)c1cc(F)ccc1-n1c(C)c(C(=O)[C@@H]2CCN(C(=O)[C@@H]3CC[C@H](C)N3)[C@@H](C)C2)c2ccncc21)C(C)C (stereo in doubt) [Example 63, N-Ethyl-5-fluoro-N-isopropyl-2-(2-methyl-3-((2S,4RS)-2-methyl-1-((2S,5S)-5-methylpyrrolidine-2-carbonyl)piperidine-4-carbonyl)-1H-pyrrolo[2,3-c]pyridine-1-yl)benzamide]	47		
Cc1c(C(=O)[C@@H]2CCN(C(=O)[C@@H]3CC[C@@H](C)N3)[C@@H](C)C2)c2ccncc2n1-c1ccc(F)cc1C(=O)N(C(C)C)C(C)C (stereo in doubt) [Example 64, 5-Fluoro-N,N-diisopropyl-2-(2-methyl-3-((2S,4RS)-2-methyl-1-((2S,5R)-5-methylpyrrolidine-2-carbonyl)piperidine-4-carbonyl)-1H-pyrrolo[2,3-c]pyridin-1-yl)benzamide]	53		
CCN(C(=O)c1cc(F)ccc1-n1c(C)c(C(=O)[C@@H]2CCN(C(=O)[C@@H]3CC[C@@H](C)N3)[C@@H](C)C2)c2ccncc21)C(C)C (stereo in doubt) [Example 65, N-Ethyl-5-fluoro-N-isopropyl-2-(2-methyl-3-((2S,4RS)-2-methyl-1-((2S,5R)-5-methylpyrrolidine-2-carbonyl)piperidine-4-carbonyl)-1H-pyrrolo[2,3-c]pyridin-1-yl)benzamide]	56		
CC(C)N(C(=O)c1cc(F)ccc1-n1cc(C(=O)C2CN(C(=O)[C@H]3NC4CCC3CC4)C2)c2ccncc21)C(C)C [Example 6, (S)-2-(3-(1-(2-Azabicyclo[2.2.2]octane-3-carbonyl)azetidine-3-carbonyl)-1H-pyrrolo[2,3-c]pyridin-1-yl)-5-fluoro-N,N-diisopropylbenzamide]	73		
CCN(C(=O)c1cc(F)ccc1-n1cc(C(=O)C2CN(C(=O)[C@H]3N[C@@H]4CC[C@H]3C4)C2)c2ccncc21)C(C)C [Example 8, 2-(3-(1-((1R,3S,4S)-2-Azabicyclo[2.2.1]heptane-3-carbonyl)azetidine-3-carbonyl)-1H-pyrrolo[2,3-c]pyridin-1-yl)-N-ethyl-5-fluoro-N-isopropylbenzamide]	142		
CC(C)(F)c1ncccc1-c1cc(F)ccc1-n1cc(C(=O)C2CN(C(=O)[C@H]3N[C@@H]4CC[C@H]3C4)C2)c2ccncc21 [Example 13, (1-((1R,3S,4S)-2-Azabicyclo[2.2.1]heptane-3-carbonyl)azetidin-3-yl)(1-(4-fluoro-2-(2-(2-fluoropropan-2-yl)pyridin-3-yl)phenyl)-1H-pyrrolo[2,3-c]pyridin-3-yl)methanone]	51		
CCN(C(=O)c1cc(F)ccc1-n1cc(C(=O)C2CCN(C(=O)[C@H]3N[C@H]4C[C@@H]3[C@@H](F)C4)CC2)c2ccncc21)C(C)C [Example 30, N-Ethyl-5-fluoro-2-(3-(1-((1S,3S,4S,5S)-5-fluoro-2-azabicyclo[2.2.1]heptane-3-carbonyl)piperidine-4-carbonyl)-1H-pyrrolo[2,3-c]pyridin-1-yl)-N-isopropylbenzamide]	44		
C[C@@H]1CCC[C@H](C)N1C(=O)c1cc(F)ccc1-n1cc(C(=O)C2CCN(C(=O)[C@H]3N[C@@H]4CC[C@H]3C4)CC2)c2ccncc21 [Example 33, (1-((1R,3S,4S)-2-Azabicyclo[2.2.1]heptane-3-carbonyl)piperidin-4-yl)(1-(2-((2R,6S)-2,6-dimethylpiperidine-1-carbonyl)-4-fluorophenyl)-1H-pyrrolo[2,3-c]pyridin-3-yl)methanone]	111		
C[C@@H]1COC[C@@H](C)N1C(=O)c1cc(F)ccc1-n1cc(C(=O)C2CCN(C(=O)[C@H]3N[C@@H]4CC[C@H]3C4)CC2)c2ccncc21 [Example 34, (1-((1R,3S,4S)-2-Azabicyclo[2.2.1]heptane-3-carbonyl)piperidin-4-yl)(1-(2-((3R,5R)-3,5-dimethylmorpholine-4-carbonyl)-4-fluorophenyl)-1H-pyrrolo[2,3-c]pyridin-3-yl)methanone]	62		
CC(C)N(C(=O)c1cc(F)ccc1-n1cc(C(=O)C2CCN(C(=O)[C@H]3N[C@@H]4CC[C@H]3C4)CC2)c2c(F)cncc21)C(C)C.O=CO [Example 44, 2-(3-(1-((1R,3S,4S)-2-Azabicyclo[2.2.1]heptane-3-carbonyl)piperidine-4-carbonyl)-4-fluoro-1H-pyrrolo[2,3-c]pyridin-1-yl)-5-fluoro-N,N-diisopropylbenzamide 1·formic acid]	73		

Reference: patent US20240335431A1, “1-H-PYRROLO[2,3-c]PYRIDINE COMPOUNDS” (Acerta Pharma B.V., priority 2023, published 2024)
